Experimental data from patent publication US11513109B2, “Biological toxicity test method for evaluating the ecological safety of advanced oxidation processes” (priority 2018, dated 2022).

Test system: Koi (Cyprinus carpio haematopterus)
Assay: Koi exposure toxicity test: liver homogenate antioxidative enzyme activity (SOD, CAT, GPx)
Type: in vivo
Details: experimental group 1 vs blank group
Procedure: Still further, four groups of identical experimental pools are established in S2. Each group of experimental pools is provided with 3 parallel groups. The size of each experimental pool is unified to 30 L. The water temperature of the experimental pool is 18° C. to 22° C. Each experimental pool is provided with an aerator. The first group of the experimental pools is the waste water control group, the second group is the waste water group, the third group is the tap water control group, and the fourth group is the tap water blank group. The four groups of experimental pools have same conditions except the addition of different water quality. 25 L of raw waste water, experimental waste water, control tap water, and blank tap water are sequentially added to the experimental pool of the waste water control group, the waste water experimental group, the tap water control group, and the […].
Still further, 20 selected Koi are put into each experimental pool in S3 for exposure to poison. The Koi used in the test are those domesticated with tap water and not poisoned by the contaminants. The duration of exposure is 96 h-110 h. During the period of exposure, half water is changed every day with water of same quality to maintain the water quality in a stable condition.
Further, the method in S4 is specifically: the Koi after exposure to poison in each group is dissected and liver is extracted, chopped, and formulated into a homogenate with the liver tissue and physiological saline according to weight (g): volume (mL)=1:9 and the activity of antioxidative enzymes in the homogenate is determined.
Still further, the antioxidative enzyme determined in S4 comprises superoxide dismutase, catalase, and glutathione peroxidase.
Still further, the biological indicators such as the determined enzyme activity described in S4 are determined using a kit, and 5 parallel group assays are set for each sample group.
S1: the waste water to be determined was collected (prepared), […]. […]

OO [H2O2]
produces oxidative stress: oxidative stress on the koi (SOD higher, GPx lower than blank group, not significant) (Example 1, oxidant in UV/H2O2) | oxidative stress on the Koi (SOD higher, GPx lower than blank group, not significant) (Example 3, oxidant in the ozone combined oxidation process) | oxidative stress on the Koi (SOD higher, GPx lower than blank group, not significant) (Example 4, oxidant in the wet oxidation process)
